Target: T1, Dimer of Gag-Pol polyprotein [489-587] (Human immunodeficiency virus 1, UniProt P12497)
T1 construct: 489-587
Assay: Protease Inhibition Assay
Protocol: For determination of IC50 values, HIV-1 protease was added to assay buffer containing inhibitor and the substrate (H-His-Lys-Ala-Arg-Val-Leu- (p-NO2) Phe-Glu-Ala-norleucine-Ser-NH2). The Leu- (p-NO2) Phe bond of the substrate was cleaved by the enzyme, and the substrate and products were separated by reversed-phase HPLC. Absorbance was measured at 220 nm, peak areas were determined, and percentage conversion to product was calculated.

SMILES	IC50 (pH 4.7, 37 °C)	IC50
CCCC1(c2ccccc2)CC(=O)C(SCCc2ccccc2)C(=O)O1 (stereo unspecified) [5,6-Dihydro-4-hydroxy-6-phenyl-3-[(2-phenylethyl)thio]-6-propyl-2H-pyran-2-one]	5.1 µM	
O=C1CC(c2ccccc2)(c2ccncc2)OC(=O)C1SCCc1ccccc1 (stereo unspecified) [5,6-Dihydro-4-hydroxy-6-phenyl-3-[(2-phenylethyl)thio]-6-pyridin-4-yl-2H-pyran-2-one]		0.79 µM
O=C1CC(c2ccccc2)OC(=O)C1SCc1ccccc1 (stereo unspecified) [5,6-Dihydro-4-hydroxy-6-phenyl-3-[(phenylmethyl)thio]-2H-pyran-2-one]	8.9 µM	
CCCC1(c2ccccc2)CC(=O)C(SCc2ccccc2)C(=O)O1 (stereo unspecified) [5,6-Dihydro-4-hydroxy-6-phenyl-3-[(phenylmethyl)thio]-6-propyl-2H-pyran-2-one]	0.29 µM	
O=C1CC(CCc2ccccc2)(c2ccccc2)OC(=O)C1Sc1ccccc1 (stereo unspecified) [5,6-Dihydro-4-hydroxy-6-phenyl-6-(2-phenylethyl)-3-(phenylthio)-2H-pyran-2-one]	0.13 µM	
CC(C)c1ccc(C(C)C)c(SC2C(=O)CC(CCc3ccccc3)(c3ccccc3)OC2=O)c1 (stereo unspecified) [5,6-Dihydro-4-hydroxy-6-phenyl-6-(2-phenylethyl)-3-[(2,5-diisopropylphenyl)sulfanyl]-2H-pyran-2-one]		0.014 µM
O=C1CC(CCc2ccccc2)(c2ccccc2)OC(=O)C1SCCc1ccccc1 (stereo unspecified) [5,6-Dihydro-4-hydroxy-6-phenyl-6-(2-phenylethyl)-3-[(2-phenylethyl)thio]-2H-pyran-2-one]	0.051 µM	
CCCCCCC1(c2ccccc2)CC(=O)C(SCCc2ccccc2)C(=O)O1 (stereo unspecified) [5,6-Dihydro-6-hexyl-4-hydroxy-6-phenyl-3-[(2-phenylethyl)thio]-2H-pyran-2-one]	0.112 µM	
NC(=O)CCCCC1(c2ccccc2)CC(=O)C(SCCc2ccccc2)C(=O)O1 (stereo unspecified) [5-{4-hydroxy-6-oxo-2-phenyl-5-[(2-phenylethyl)sulfanyl]-3,6-dihydro-2H-pyran-2-yl}pentanamide]		0.338 µM
O=C(O)CCCCC1(c2ccccc2)CC(=O)C(SCCc2ccccc2)C(=O)O1 (stereo unspecified) [5-{4-hydroxy-6-oxo-2-phenyl-5-[(2-phenylethyl)sulfanyl]-3,6-dihydro-2H-pyran-2-yl}pentanoic acid]	0.005 µM	
O=C1CC(CC2CCCCC2)(c2ccccc2)OC(=O)C1SCc1ccccc1 (stereo unspecified) [6-(Cyclohexylmethyl)-5,6-dihydro-4-hydroxy-6-phenyl-3-[(phenylmethyl)thio]-2H-pyran-2-one]	0.137 µM	
O=C1CC(CC2CCCC2)(c2ccccc2)OC(=O)C1SCc1ccccc1 (stereo unspecified) [6-(Cyclopentylmethyl)-5,6-dihydro-4-hydroxy-6-phenyl-3-[(phenylmethyl)thio]-2H-pyran-2-one]	0.088 µM	
O=C1CC(CC2CCCC2)(c2ccccc2)OC(=O)C1SCCc1ccccc1 (stereo unspecified) [6-(cyclopentylmethyl)-4-hydroxy-6-phenyl-3-[(2-phenylethyl)sulfanyl]-5,6-dihydro-2H-pyran-2-one]	0.51 µM	
CCCCC1(c2ccccc2)CC(=O)C(SCCc2ccccc2)C(=O)O1 (stereo unspecified) [6-Butyl-5,6-dihydro-4-hydroxy-6-phenyl-3-[(2-phenylethyl)thio]-2H-pyran-2-one]	0.4 µM	
Cc1ccc(C(C)C)c(SC2C(=O)C[C@](CCc3ccccc3)(c3ccccc3)OC2=O)c1 (stereo partly drawn) [(6R)-4-hydroxy-3-{[5-methyl-2-(propan-2-yl)phenyl]sulfanyl}-6-phenyl-6-(2-phenylethyl)-5,6-dihydro-2H-pyran-2-one]		0.13 µM
Cc1ccc(C(C)C)c(SC2C(=O)C[C@@](CCc3ccccc3)(c3ccccc3)OC2=O)c1 (stereo partly drawn) [(6S)-4-hydroxy-3-{[5-methyl-2-(propan-2-yl)phenyl]sulfanyl}-6-phenyl-6-(2-phenylethyl)-5,6-dihydro-2H-pyran-2-one]		0.006 µM

— BindingDB's records for doi:10.1021/jm970615f (Parke-Davis Pharmaceutical Research, 1997)
